Laboratory results reported in US20210298306A1, “PESTICIDALLY ACTIVE AZOLE-AMIDE COMPOUNDS” (SYNGENTA PARTICIPATIONS AG, priority 2018, published 2021).

How the values were obtained:
[1] = tested on: Plutella xylostella; assay: Example B11: Plutella xylostella (diamondback moth), artificial diet, 96-well, eggs; type: in vivo; conditions: 216 h, application rate 500 ppm, 9 days after infestation
Description: Example B11: Plutella xylostella (Diamondback Moth)
96-well microtiter plates containing artificial diet were treated with aqueous test solutions, prepared from 10,000 ppm DMSO stock solutions, by a liquid handling robot. After drying, eggs (˜30 per well) were infested onto a netted lid which was suspended above the diet. The eggs hatch and L1 larvae move down to the diet. The samples were assessed for mortality 9 days after infestation.
The following compounds gave an effect of at least 80% average mortality at an application rate of 500 ppm: […]

[2] = tested on: Spodoptera littoralis; assay: Example B7: Spodoptera littoralis (Egyptian cotton leaf worm), cotton leaf discs sprayed, L1 larvae; type: in vivo; conditions: foliar, 72 h, application rate 200 ppm, 3 days after infestation, read-out: control in at least one of the categories (mortality, anti-feedant effect, or growth inhibition)
Description: Example B7: Spodoptera littoralis (Egyptian Cotton Leaf Worm)
Cotton leaf discs were placed onto agar in 24-well microtiter plates and sprayed with aqueous test solutions prepared from 10,000 ppm DMSO stock solutions. After drying the leaf discs were infested with five L1 larvae. The samples were assessed for mortality, anti-feeding effect, and growth inhibition in comparison to untreated samples 3 days after infestation. Control of Spodoptera littoralis by a test sample is given when at least one of the categories mortality, anti-feedant effect, and growth inhibition is higher than the untreated sample.

[3] = tested on: Chilo suppressalis; assay: Example B3: Chilo suppressalis (striped rice stemborer), artificial diet, L2 larvae; type: in vivo; conditions: 144 h, application rate 200 ppm, 6 days after infestation, read-out: control in at least one of the categories (mortality, anti-feedant effect, or growth inhibition)
Description: Example B3: Chilo suppressalis (Striped Rice Stemborer)
24-well microtiter plates with artificial diet were treated with aqueous test solutions prepared from 10,000 ppm DMSO stock solutions by pipetting. After drying, the plates were infested with L2 larvae (6-8 per well). The samples were assessed for mortality, anti-feeding effect, and growth inhibition in comparison to untreated samples 6 days after infestation. Control of Chilo suppressalis by a test sample is given when at least one of the categories mortality, anti-feedant effect, and growth inhibition is higher than the untreated sample.

[4] = tested on: Myzus persicae; assay: Example B10: Myzus persicae (green peach aphid), sucrose solution, 96-well; type: in vivo; conditions: 120 h, application rate 50 ppm, 5 days after infestation
From the text: Example B10: Myzus persicae (Green Peach Aphid)
Test compounds prepared from 10,000 ppm DMSO stock solutions were applied by a liquid handling robot into 96-well microtiter plates and mixed with a sucrose solution. Parafilm was stretched over the 96-well microtiter plate and a plastic stencil with 96 holes was placed onto the plate. Aphids were sieved into the wells directly onto the Parafilm. The infested plates were closed with a gel blotting card and a second plastic stencil and then turned upside down. The samples were assessed for mortality 5 days after infestation.

[5] = tested on: Myzus persicae; assay: Example B6: Myzus persicae (green peach aphid), intrinsic activity, sucrose solution, 24-well; type: in vivo; conditions: 120 h, test rate 12 ppm, 5 days after infestation
From the text: Example B6: Myzus persicae (Green Peach Aphid). Intrinsic Activity
Test compounds prepared from 10,000 ppm DMSO stock solutions were applied by pipette into 24-well microtiter plates and mixed with sucrose solution. The plates were closed with a stretched Parafilm. A plastic stencil with 24 holes was placed onto the plate and infested pea seedlings were placed directly on the Parafilm. The infested plate was closed with a gel blotting paper and another plastic stencil and then turned upside down. The samples were assessed for mortality 5 days after infestation.

[6] = tested on: Euschistus heros; assay: Example B2: Euschistus heros (neotropical brown stink bug), soybean leaves sprayed, N2 nymphs; type: in vivo; conditions: 120 h, application rate 200 ppm, 5 days after infestation, read-out: effect in at least one of the two categories (mortality or growth inhibition)
Description: Example B2: Euschistus heros (Neotropical Brown Stink Bug)
Soybean leaves on agar in 24-well microtiter plates were sprayed with aqueous test solutions prepared from 10,000 ppm DMSO stock solutions. After drying the leaves were infested with N2 nymphs. The samples were assessed for mortality and growth inhibition in comparison to untreated samples 5 days after infestation.
(§1) The following compounds gave an effect of at least 80% in at least one of the two categories (mortality or growth inhibition) at an application rate of 200 ppm: […]

[7] = tested on: Myzus persicae; assay: Example B5: Myzus persicae (green peach aphid), feeding/contact activity, sunflower leaf discs; type: in vivo; conditions: foliar, 144 h, application rate 200 ppm, 6 days after infestation, Myzus persicae mixed ages
Description: Example B5: Myzus persicae (Green Peach Aphid):Feeding/Contact Activity
(§2) Sunflower leaf discs were placed onto agar in a 24-well microtiter plate and sprayed with aqueous test solutions prepared from 10,000 ppm DMSO stock solutions. After drying, the leaf discs were infested with an aphid population of mixed ages. The samples were assessed for mortality 6 days after infestation.

[8] = tested on: Plutella xylostella; assay: Example B4: Plutella xylostella (diamond back moth), artificial diet, 24-well, eggs; type: in vivo; conditions: 192 h, application rate 200 ppm, 8 days after infestation, read-out: effect in at least one of the two categories (mortality or growth inhibition)
Description: Example B4: Plutella xylostella (Diamond Back Moth)
24-well microtiter plates with artificial diet were treated with aqueous test solutions prepared from 10,000 ppm DMSO stock solutions by pipetting. After drying, Plutella eggs were pipetted through a plastic stencil onto a gel blotting paper and the plate was closed with it. The samples were assessed for mortality and growth inhibition in comparison to untreated samples 8 days after infestation.
as §1

[9] = tested on: Diabrotica balteata; assay: Example B1: Diabrotica balteata (corn root worm), maize sprouts sprayed, L2 larvae; type: in vivo; conditions: 96 h, application rate 200 ppm, 4 days after infestation, read-out: effect in at least one of the two categories (mortality or growth inhibition)
Description: Example B1: Diabrotica Balteata (Corn Root Worm)
Maize sprouts placed onto an agar layer in 24-well microtiter plates were treated with aqueous test solutions prepared from 10,000 ppm DMSO stock solutions by spraying. After drying, the plates were infested with L2 larvae (6 to 10 per well). The samples were assessed for mortality and growth inhibition in comparison to untreated samples 4 days after infestation.
as §1

[10] = tested on: Thrips tabaci; assay: Example B9: Thrips tabaci (onion thrips), feeding/contact activity, sunflower leaf discs; type: in vivo; conditions: foliar, 144 h; application rate 200 ppm; 6 days after infestation; Thrips tabaci mixed ages
Description: Example B9: Thrips tabaci (Onion Thrips) Feeding/Contact Activity
as §2, with “on” for “onto”, “in” for “in a”, “plates” for “plate”, “drying” for “drying,”, “a thrips” for “an aphid”

SMILES	mortality at 500 ppm [1]	percent control (mortality, anti-feedant effect or growth inhibition) at 200 ppm [2]	percent control (mortality, anti-feedant effect or growth inhibition) at 200 ppm [3]	mortality at 50 ppm [4]	mortality at 12 ppm [5]	percent effect (mortality or growth inhibition) at 200 ppm [6]	mortality at 200 ppm [7]	percent effect (mortality or growth inhibition) at 200 ppm [8]	percent effect (mortality or growth inhibition) at 200 ppm [9]	mortality at 200 ppm [10]	melting point
CC(NC(=O)c1cc(OCC(F)F)cc(C(F)(F)F)c1)c1ncnn1-c1ncccn1 (centres unmarked) [P20, 3-(2,2-difluoroethoxy)-N-[1-(2-pyrimidin-2-yl-1,2,4-triazol-3-yl)ethyl]-5-(trifluoromethyl) benzamide]	≥ 80%	≥ 80%	≥ 80%	≥ 80%	≥ 80%	≥ 80%	≥ 80%	≥ 80%	–	–	–
CC(NC(=O)c1cc(OC(F)(F)F)cc(C(F)(F)F)c1)c1ncnn1-c1ncccn1 (centres unmarked) [P19, N-[1-(2-pyrimidin-2-yl-1,2,4-triazol-3-yl)ethyl]-3-(trifluoromethoxy)-5-(trifluoromethyl) benzamide]	≥ 80%	≥ 80%	≥ 80%	≥ 80%	≥ 80%	≥ 80%	≥ 80%	≥ 80%	≥ 80%	–	–
CC(c1ncnn1-c1ncccn1)N(CC1CC1)C(=O)c1cc(SC(F)F)cc(C(F)(F)F)c1 (centres unmarked) [P18, N-(cyclopropylmethyl)-3-(difluoromethylsulfanyl)-N-[1-(2-pyrimidin-2-yl-1,2,4-triazol-3-yl)ethyl]-5-(trifluoromethyl) benzamide]	≥ 80%	–	–	≥ 80%	≥ 80%	≥ 80%	≥ 80%	≥ 80%	≥ 80%	≥ 80%	–
CC(NC(=O)c1cncc(OC(F)F)c1)c1ncnn1-c1ccccn1 (centres unmarked) [P23, 5-(difluoromethoxy)-N-[1-[2-(2-pyridyl)-1,2,4-triazol-3-yl]ethyl]pyridine-3-carboxamide]	–	–	–	–	–	–	–	–	–	–	105 to 110 °C
